Measurements as given in ChEMBL document CHEMBL1165848, “Discovery of new cholesteryl ester transfer protein inhibitors via ligand-based pharmacophore modeling and QSAR analysis followed by synthetic exploration” (Eur J Med Chem, 2010).

Target: T1, Cholesteryl ester transfer protein (Oryctolagus cuniculus) (UniProt P22687)
T1 sequence (whole entry): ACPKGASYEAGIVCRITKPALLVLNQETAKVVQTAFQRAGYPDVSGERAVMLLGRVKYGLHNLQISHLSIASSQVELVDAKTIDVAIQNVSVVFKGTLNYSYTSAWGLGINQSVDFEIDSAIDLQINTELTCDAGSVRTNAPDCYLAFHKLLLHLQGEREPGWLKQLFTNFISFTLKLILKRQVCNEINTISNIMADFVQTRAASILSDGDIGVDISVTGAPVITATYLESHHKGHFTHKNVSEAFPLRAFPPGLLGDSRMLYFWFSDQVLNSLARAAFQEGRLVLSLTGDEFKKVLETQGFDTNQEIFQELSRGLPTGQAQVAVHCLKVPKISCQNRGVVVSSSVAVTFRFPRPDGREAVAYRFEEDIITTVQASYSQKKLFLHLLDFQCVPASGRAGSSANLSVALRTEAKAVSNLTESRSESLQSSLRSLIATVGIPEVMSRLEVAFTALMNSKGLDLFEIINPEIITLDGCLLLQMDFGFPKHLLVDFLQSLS
Assay: Inhibition of CETP in rabbit serum at 10 uM after 1 hr by fluorescent cholesteryl esters transfer assay
Details: not given

SMILES	inhibition [%]
N=c1[nH]c(=O)n(CCCOc2ccccc2)cc1-c1ccc(Cl)c(Cl)c1	0
O=C(Nc1ccc(Cl)cc1C(F)(F)F)Oc1ccc(OCc2ccccc2)cc1	22.1
O=C(c1ccc(/N=C/c2cccc(C(F)(F)F)c2)cc1)c1ccc(-c2ccccc2)cc1	9.8
O=C(c1ccccc1)c1cc(Cl)ccc1NCC(O)COc1ccc(Cl)cc1 (centres undefined)	8.1
CC(C)OC(=O)CCC/C=C\C[C@@H]1[C@@H](CC[C@@H](O)CCc2ccccc2)[C@H](O)C[C@@H]1O	11.4
C/C=C/c1ccc2oc(-c3ccc(OC4OC(C)C(O)C(O)C4O)cc3)c(C)c2c1 (centres undefined)	9
O=C(Nc1ccc(Cl)c(Cl)c1)OCC(Cl)COc1ccc(Cl)cc1 (centres undefined)	0

Target: T2, Cholesteryl ester transfer protein (Oryctolagus cuniculus, UniProt P22687)
T2 sequence (P22687 whole entry): T1 sequence (whole entry)
Assay: Inhibition of CETP in rabbit serum after 1 hr by fluorescent cholesteryl esters transfer assay
Details: not given

SMILES	IC50 [nM]
CC(C)Oc1cccc(N(Cc2cccc(OC(F)(F)C(F)F)c2)CC(O)C(F)(F)F)c1 (centres undefined)	300

Same assay, conditions: read-out: IC50

SMILES	IC50 [nM]
OC(CN(Cc1cccc(OC(F)(F)C(F)F)c1)c1cccc(OC2CCCCC2)c1)C(F)(F)F (centres undefined)	2600
Cc1ccccc1CN(CC(O)C(F)(F)F)c1cccc(F)c1 (centres undefined)	> 100000
Cc1cc(Oc2cccc(N(Cc3cccc(OC(F)(F)C(F)F)c3)CC(O)C(F)(F)F)c2)ccc1F (centres undefined)	80
OC(CN(Cc1cccc(Oc2ccccc2)c1)Cc1cccc(OC(F)(F)F)c1)C(F)(F)F (centres undefined)	30000
Cc1ccc(Oc2cccc(N(Cc3cccc(OC(F)(F)C(F)F)c3)CC(O)C(F)(F)F)c2)cc1 (centres undefined)	100
Cc1cccnc1-c1cccc(CN(CC(O)C(F)(F)F)c2cccc(Oc3ccccc3)c2)c1 (centres undefined)	15000
Cc1cc(Oc2cccc(N(Cc3cccc(OC(F)(F)C(F)F)c3)CC(O)C(F)(F)F)c2)ccc1Cl (centres undefined)	200
OC(CN(Cc1ccc(OC(F)(F)F)cc1)c1cccc(F)c1)C(F)(F)F (centres undefined)	15000
CC(C)(C)Oc1cccc(CN(CC(O)C(F)(F)F)c2cccc(Oc3ccccc3)c2)c1 (centres undefined)	660
CC(C)(C)c1cccc(Oc2cccc(N(Cc3cccc(OC(F)(F)C(F)F)c3)CC(O)C(F)(F)F)c2)c1 (centres undefined)	80
Cc1ccc(CN(CC(O)C(F)(F)F)c2cccc(F)c2)cc1 (centres undefined)	65000
COC(=O)c1cccc(CN(CC(O)C(F)(F)F)c2cccc(Oc3ccccc3)c2)c1 (centres undefined)	16000
OC(CN(Cc1cccc(OC(F)(F)C(F)F)c1)c1cccc(OCc2cccc(C(F)(F)F)c2)c1)C(F)(F)F (centres undefined)	90
CCc1cc(Oc2cccc(N(Cc3ccc(C(F)(F)F)cc3F)C[C@@H](O)C(F)(F)F)c2)ccc1Cl	40
Cc1cccc(CN(CC(O)C(F)(F)F)c2cccc(F)c2)c1 (centres undefined)	> 100000
CCc1cc(Oc2cccc(N(Cc3cccc(C(F)(F)C(F)(F)F)c3)C[C@@H](O)C(F)(F)F)c2)ccc1Cl	45
OC(CN(Cc1cccc(-c2ccccc2)c1)c1cccc(Oc2ccccc2)c1)C(F)(F)F (centres undefined)	4420
OC(CN(Cc1ccc(F)c(-c2ccco2)c1)c1cccc(Oc2ccccc2)c1)C(F)(F)F (centres undefined)	720
OC(CN(Cc1cccc(Oc2ccccc2)c1)c1cccc(F)c1)C(F)(F)F (centres undefined)	15000
COc1cccc(CN(CC(O)C(F)(F)F)c2cccc(Oc3ccccc3)c2)c1 (centres undefined)	15000
OC(CN(Cc1cccc(-c2cccs2)c1)c1cccc(Oc2ccccc2)c1)C(F)(F)F (centres undefined)	1120
OC(CN(Cc1cccc(OC(F)(F)C(F)(F)F)c1)c1cccc(Oc2ccc(S)cc2)c1)C(F)(F)F (centres undefined)	> 50000
OC(CN(Cc1cccc(OC(F)(F)C(F)F)c1)c1cccc(Oc2ccc(Cl)c(Cl)c2)c1)C(F)(F)F (centres undefined)	80
OC(CN(Cc1cccc(OC(F)(F)C(F)F)c1)c1cccc(Oc2ccccc2Cl)c1)C(F)(F)F (centres undefined)	300
OC(CN(Cc1cccc(Oc2cccc(C(F)(F)F)c2)c1)c1cccc(F)c1)C(F)(F)F (centres undefined)	1.2
OC(CN(Cc1cccc(C(F)(F)F)c1)c1cccc(F)c1)C(F)(F)F (centres undefined)	40000

SMILES	IC50 [nM]
OC(CN(Cc1cccc(OC(F)(F)F)c1)Cc1cccc(OC(F)(F)F)c1)C(F)(F)F (centres undefined)	23000
COc1cc(N(Cc2cccc(SC(F)(F)F)c2)C[C@@H](O)C(F)(F)F)cc(OC)c1OC	5000
O=[N+]([O-])c1c(F)cccc1Oc1cccc(N(Cc2cccc(OC(F)(F)C(F)F)c2)CC(O)C(F)(F)F)c1 (centres undefined)	100
CC(C)c1ccc(Oc2cccc(N(Cc3cccc(OC(F)(F)C(F)F)c3)CC(O)C(F)(F)F)c2)cc1 (centres undefined)	400
CN(C)c1cccc(Oc2cccc(N(Cc3cccc(OC(F)(F)C(F)F)c3)CC(O)C(F)(F)F)c2)c1 (centres undefined)	200
OC(CN(Cc1cccc(OC(F)(F)C(F)F)c1)c1cccc(Oc2cccc(F)c2)c1)C(F)(F)F (centres undefined)	300
Cc1cc(C)cc(Oc2cccc(N(Cc3cccc(OC(F)(F)C(F)F)c3)CC(O)C(F)(F)F)c2)c1 (centres undefined)	70
CCc1cc(Oc2cccc(N(Cc3cccc(OC(F)(F)F)c3)C[C@@H](O)C(F)(F)F)c2)ccc1Cl	35
O=[N+]([O-])c1ccccc1Oc1cccc(N(Cc2cccc(OC(F)(F)C(F)F)c2)CC(O)C(F)(F)F)c1 (centres undefined)	400
Cc1ccc(CN(CC(O)C(F)(F)F)c2cccc(Oc3ccccc3)c2)cc1-c1ccco1 (centres undefined)	3960
OC(CN(Cc1cccc(OC(F)(F)C(F)F)c1)c1cccc(Oc2cccnc2)c1)C(F)(F)F (centres undefined)	1300
OC(CN(Cc1cccc(OC(F)(F)C(F)F)c1)c1cccc(Oc2cccc(F)c2F)c1)C(F)(F)F (centres undefined)	100
CCc1cc(Oc2cccc(N(Cc3cc(C(F)(F)F)ccc3F)C[C@@H](O)C(F)(F)F)c2)ccc1Cl	49
Cc1cccc(N(Cc2cccc(C(F)(F)F)c2)CC(O)C(F)(F)F)c1 (centres undefined)	10000
OC(CN(Cc1cccc(-c2ncccc2C(F)(F)F)c1)c1cccc(Oc2ccccc2)c1)C(F)(F)F (centres undefined)	4080
CC(C)(O)c1cccc(CN(CC(O)C(F)(F)F)c2cccc(Oc3ccccc3)c2)c1 (centres undefined)	7800
OC(CN(Cc1cccc(OC(F)(F)C(F)F)c1)c1cccc(OCc2ccccc2)c1)C(F)(F)F (centres undefined)	200
OC(CN(Cc1cccc(-c2cccnc2)c1)c1cccc(Oc2ccccc2)c1)C(F)(F)F (centres undefined)	14300
OC(CN(Cc1ccccc1C(F)(F)F)c1cccc(F)c1)C(F)(F)F (centres undefined)	> 100000
OC(CN(Cc1cccc(OC(F)(F)C(F)F)c1)c1cccc(Oc2ccc(Cc3ccccc3)cc2)c1)C(F)(F)F (centres undefined)	2400
OC(CN(Cc1cccc(OC(F)(F)C(F)F)c1)c1cccc(OC2CCCC2)c1)C(F)(F)F (centres undefined)	400
OC(CN(Cc1cccc(OC(F)(F)F)c1)c1ccccc1Oc1ccccc1)c1ccccc1 (centres undefined)	> 50000
OC(CN(Cc1cccc(C(F)(F)F)c1)c1cccc(C(F)(F)F)c1)C(F)(F)F (centres undefined)	10000
OC(CN(Cc1cccc(OC(F)(F)C(F)F)c1)c1cccc(F)c1)C(F)(F)F (centres undefined)	4500
OC(CN(Cc1cccc(OC(F)(F)C(F)F)c1)c1cccc(Oc2cc(F)cc(F)c2)c1)C(F)(F)F (centres undefined)	200
OC(CN(Cc1cccc(C2CCCC2)c1)c1cccc(Oc2ccccc2)c1)C(F)(F)F (centres undefined)	300

SMILES	IC50 [nM]
OC(CN(Cc1cccc(SC(F)(F)F)c1)c1cccc(Oc2ccccc2)c1)C(F)(F)F (centres undefined)	390
Cc1ccccc1N(Cc1cccc(C(F)(F)F)c1)CC(O)C(F)(F)F (centres undefined)	> 100000
OC(CN(Cc1cccc(OC(F)(F)F)c1)c1ccc(Oc2ccccc2)cc1)C(F)(F)F (centres undefined)	25000
CCCC(O)CN(Cc1cccc(OC(F)(F)F)c1)c1ccccc1Oc1ccccc1 (centres undefined)	3600
OC(CN(Cc1ccc(-c2ccccc2)cc1)c1cccc(F)c1)C(F)(F)F (centres undefined)	20000
Cc1cccc(Oc2cccc(N(Cc3cccc(OC(F)(F)C(F)F)c3)CC(O)C(F)(F)F)c2)c1 (centres undefined)	90
OC(CN(Cc1ccc2c(c1)OC(F)(F)C(F)(F)O2)c1cccc(Oc2ccccc2)c1)C(F)(F)F (centres undefined)	12000
CC(C)Cc1cccc(CN(CC(O)C(F)(F)F)c2cccc(Oc3ccccc3)c2)c1 (centres undefined)	540
OC(CN(Cc1cccc(C(F)(F)F)c1)c1cccc(Cl)c1)C(F)(F)F (centres undefined)	12000
OC(CN(Cc1ccccc1)c1cccc(F)c1)C(F)(F)F (centres undefined)	> 100000
OC(CN(Cc1cccc(OC(F)(F)F)c1)c1ccccc1Oc1ccccc1)c1ccc(C(F)(F)F)cc1 (centres undefined)	18000
OC(CN(Cc1cccc(OC(F)(F)C(F)F)c1)c1cccc(Oc2ccc(OC(F)(F)F)cc2)c1)C(F)(F)F (centres undefined)	400
OC(CN(Cc1cccc(OC(F)(F)C(F)F)c1)c1cccc(Oc2cccc(Cl)c2Cl)c1)C(F)(F)F (centres undefined)	30
C=CC(O)CN(Cc1cccc(OC(F)(F)F)c1)c1ccccc1Oc1ccccc1 (centres undefined)	> 50000
Cc1ccc(Oc2cccc(N(Cc3cccc(OC(F)(F)C(F)F)c3)CC(O)C(F)(F)F)c2)cc1C (centres undefined)	80
OC(CN(Cc1cccc(-c2ccncc2)c1)c1cccc(Oc2ccccc2)c1)C(F)(F)F (centres undefined)	6240
Cc1ccc(N(Cc2cccc(C(F)(F)F)c2)CC(O)C(F)(F)F)cc1 (centres undefined)	> 100000
OC(CN(Cc1cccc(C(F)(F)F)c1)c1ccccc1)C(F)(F)F (centres undefined)	15000
OC(CN(Cc1cccc(OC(F)(F)C(F)F)c1)c1cccc(Oc2ccc(-c3ccccc3)cc2)c1)C(F)(F)F (centres undefined)	2500
OC(Cc1ccccc1)CN(Cc1cccc(OC(F)(F)F)c1)c1ccccc1Oc1ccccc1 (centres undefined)	> 50000
Cc1ccc(Oc2cccc(N(Cc3cccc(OC(F)(F)C(F)F)c3)C[C@@H](O)C(F)(F)F)c2)cc1	8.1
OC(CN(Cc1ccc(OC(F)(F)F)cc1)c1cccc(Oc2ccccc2)c1)C(F)(F)F (centres undefined)	4000
COc1cccc(Oc2cccc(N(Cc3cccc(OCC(O)C(F)(F)F)c3)CC(O)C(F)(F)F)c2)c1 (centres undefined)	1300
OC(CN(Cc1cccc(OC(F)(F)C(F)F)c1)c1cccc(Oc2ccc(Cl)cc2)c1)C(F)(F)F (centres undefined)	300
